US8796249B2, “TGR5 modulators and methods of use thereof” (Intercept Pharmaceuticals, Inc., priority 2008, dated 2014)
Structures can show the parent of a compound that is named as a salt.

What was measured:
pancreatic esterases = experiment: In vitro metabolic stability in simulated duodenal/pancreatic fluid; format: in vitro ADME, porcine
Procedure: This study has been performed for 2A since it contains an ester bond in the side chain and the aim was to verify the stability in presence of esterase enzymes like present in duodenal and pancreatic juice. Simulated pancreatic fluid was prepared by dissolving 10 g/L Pancreatin (Sigma P8096: pancreatin from porcine pancreas, activity 1× USP specifications) in 0.05M phosphate buffer, pH=7.2±0.1. Then, 4-mL aliquots of the simulated pancreatic fluid were added of […] of the studied BA and incubated for different times (0, 30, 60, 90, 120, 180 and 240 min) at 37° C. After incubation, a 2-mL aliquot of each solution was added with 2 mL of 0.1M NaOH and subjected to bile acids extraction by SPE and analysis by thin-layer chromatography and mass spectrometry as described above. […] Olive oil was used as a reference as reported in the USP protocol.

C57BL6J mice = experiment: Diet-induced obesity mouse model; format: in vivo
Procedure: The goal of the study was to assess the therapeutic potency of compound 3A in a mouse model of diet-induced obesity. Compound 3A was administered via food administration for 16 weeks to male C57BL6J mice that were previously subjected for 10 weeks to a high fat diet.
For this study, male C57BL6J mice (5 weeks of age) were divided in 2 groups: one group of animals received chow diet to control the onset of obesity, one group of animals received a high fat diet. Compound 3A was tested on the animals that received the high fat diet (HFD). The animals are then analyzed during a period of 13 weeks. The groups were as follows: • 1: chow diet • 2: high fat diet • 3: high fat diet+3A • During the entire study, body weight and food intake were monitored twice weekly. • The period for the onset of obesity was 10 weeks. At the end of the 10 weeks, body composition was analyzed by dual energy X-ray absorptiometry (dexascan) and serum levels of transaminases, glucose, triglycerides, cholesterol, HDL-C, LDL-C and insulin were measured. […]
The Dexa analyses were performed by the ultra high resolution PIXIMUS Series Densitometer (0.18×0.18 mm pixels, GE Medical Systems, Madison, Wis., USA). Bone mineral density (BMD in g/cm^2) and body composition were determined by using the PIXIMUS software (version 1.4×, GE Medical Systems). […]

## CCC1C(O)C2C3CCC(C(C)CC(C)OS(=O)(=O)O)C3(C)CCC2C2(C)CCC(O)CC12 [Compound 2A, 3α,7α,23-trihydroxy-6α-ethyl-23(S)-methyl-24-nor-5β-cholan-23-sulfate Sodium Salt]
Pancreatic esterases; 10 g/L pancreatin, pH 7.2, 37° C., up to 240 min
  metabolic stability in simulated pancreatic fluid: very stable
Pancreatic esterases; simulated pancreatic fluid
  hydrolysis of ester bond (sulphate) by pancreatic esterases: not hydrolyzed

## CC[C@H]1[C@@H](O)[C@@H]2[C@H](C[C@H](O)[C@]3(C)[C@@H]([C@H](C)CCCS(=O)(=O)[O-])CC[C@@H]23)[C@@]2(C)CC[C@@H](O)C[C@@H]12.[Na+] [Compound 3A, 3α,7α,12α-trihydroxy-6α-ethyl-5β-cholan-24-sulfonate Sodium Salt]
C57BL6J mice; HF-fed mice, compound in food, 0-9 weeks (FIG. 8)
  body weight gain: blunted
C57BL6J mice; HFD mice, 5 weeks after treatment (FIG. 9)
  fat gain (body composition): reduces fat gain
